The record followed here is US9624243B2, “Heterocyclic compounds and methods of their use” (Novartis AG, priority 2012, dated 2017).

This assay addresses AT2 receptor (Homo sapiens (Human), UniProt P50052). The assay can be described thus: AT2 Receptor Binding. Conditions: HEK293 AT2 receptor transient cell membranes, [125I]-CGP42112A. On the procedure:
1. Trypsin-EDTA (for Preparation of 100 mL)
• Dissolve trypsin in 2% EDTA and PBS completely; sterilize the solution by passing through a […] membrane filter; store at 4° C.
2. DMEM Medium (for Preparation of 1 L) • The powder was dissolved into 950 mL of distilled water with gentle stirring until the solution becomes clear. • Add. NaHCO3 1.176 g for DMEM medium. • Adjust pH of medium to 0.2˜0.3 below final working pH using 1 M NaOH or 1 M • HCl. Add slowly with stirring. • Dilute to 1 liter with ddH2O. • Sterilize the medium immediately by filtration. • Store at 4° C.
3. TE Buffer • 20 mM Tris-HCl, pH 7.4, • 5 mM EDTA
4. Binding Assay Buffer • 50 mM Hepes, pH 7.4 • 5 mM MgCl2 • 1 mM CaCl2 • 0.2% BSA
5. Wash Buffer • 50 mM Hepes, pH 7.4 Procedures for HEK293AT2 Receptor Transient Cell Transfection • Cells were plated into 150 mm dish at 50% density for transient transfection. Cells were ready for transfection after overnight incubation (the confluence reaches around 80%). • 75 μL Lipofectamine™2000 diluted in 6.25 mL OptiMEM I Reduced Serum Medium, was mixed gently, and incubated at room temperature for 5 minutes. 50 μg expression plasmid DNA diluted in 6.25 mL OptiMEM I Reduced Serum Medium without serum was mixed gently. • After the 5 minute incubation, the diluted DNA was combined with the diluted Lipofectamine™2000 (total volume is 12.5 mL). The mixture was mixed gently and incubated for 30 minutes at room temperature to allow the DNA-Lipofectamine™2000 complexes to form. • The 12.5 mL DNA-Lipofectamine™2000 complexes were added into the 150 mm dish and mixed gently by rocking the dish back and forth. • The cells were incubated at 37° C. with 5% CO2 for 48 hours. Cells were collected and stored frozen at −80° C. Procedures for HEK293AT2 Receptor Cell Membrane Preparation • Frozen HEK293AT2 receptor (transient transfected) cells were homogenized in ice cold TE buffer for 10s. • The homogenate was centrifuged at 25,000 g for 30 minutes. • The pellet was resuspended in ice cold tissue buffer. • Protein concentrations were determined using Bradford assay method with BSA as standard. • The membrane protein was frozen under −80° C. Compound Preparation
Solutions of all compounds were prepared bymicroplate liquid handling equipment such as Janus or Precision 2000. Compounds, dissolved in DMSO were stored in a Freezer. Compounds were prepared from 30 mM in 100% DMSO.
Step 1: Dose Plate Preparation (96 Well Plate)
• Add the 3 μL [30 mM] compound stock to column 1 on the plate. • Add 15 μL of 100% DMSO to column 1. • Add 10.81 μL of 100% DMSO to column 2-12. • Transfer 5 μL from column 1 into column 2 (half log dilution). • Transfer 5 μL from column 2 into column 3 (half log dilution). • Transfer 5 μL from column 3 into column 4 (half log dilution). • Transfer 5 μL from column 4 into column 5 (half log dilution). • Transfer 5 μL from column 5 into column 6 (half log dilution). • Transfer 5 μL from column 6 into column 7 (half log dilution). • Transfer 5 μL from column 7 into column 8 (half log dilution). • Transfer 5 μL from column 8 into column 9 (half log dilution). • Transfer 5 μL from column 9 into column 10 (half log dilution) • Transfer 5 μL from column 10 into column 11 (half log dilution) • Transfer 5 μL from column 11 into column 12 (half log dilution).
All the compounds were diluted using Precision 2000 microplate liquid handling equipment. The top concentration of compound was 5 mM with 100% DMSO.
Step 2: Working Plate Preparation (96 Well Plate)
• Compounds were diluted 50-fold with buffer. • 49 μL buffer was added to the well of 96 well plate. • 1 μL compound solution from dose plate was transferred to the corresponding well of working plate. • The top concentration of compound was 100 μM with 2% DMSO. Step 3: Assay Plate Preparation (96 Well Plate)
15 μL of compound solution was transferred from each well of working plate to the well of assay plate by Janus.

Chain of AT2 receptor (P50052 whole entry, species assumed): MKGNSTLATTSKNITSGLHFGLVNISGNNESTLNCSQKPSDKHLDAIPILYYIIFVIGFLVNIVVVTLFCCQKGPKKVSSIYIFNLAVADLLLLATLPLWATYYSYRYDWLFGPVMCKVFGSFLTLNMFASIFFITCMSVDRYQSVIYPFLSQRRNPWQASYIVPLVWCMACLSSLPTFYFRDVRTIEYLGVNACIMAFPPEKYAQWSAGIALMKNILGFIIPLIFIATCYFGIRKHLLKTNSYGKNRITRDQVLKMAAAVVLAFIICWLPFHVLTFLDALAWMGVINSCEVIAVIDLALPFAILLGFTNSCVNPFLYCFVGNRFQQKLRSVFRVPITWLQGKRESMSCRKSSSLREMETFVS

Usually IC50 stands for the midpoint of a concentration-inhibition curve. A high value points to a need for much substance. `O=C(O)[C@@H]1C[C@H](OC[C@@H]2C[C@H]2c2ccccc2)CN1C(=O)C(c1ccccc1)c1ccccc1` (mixture of isomers) [Compound 16, (2S,4S)-1-(2,2-diphenylacetyl)-4-(((1R,2R)-2-phenylcyclopropyl)methoxy)pyrrolidine-2-carboxylic acid and (2S,4S)-1-(2,2-diphenylacetyl)-4-(((1S,2S)-2-phenylcyclopropyl)methoxy)pyrrolidine-2-carboxylic acid] had an IC50 of 6650 nM.
The figure for `O=C(O)[C@@H]1C[C@H](OC[C@@H]2C[C@@H]2c2ccccc2)CN1C(=O)C(c1ccccc1)c1ccccc1` (mixture of isomers) [Compound 17, (2S,4S)-1-(2,2-diphenylacetyl)-4-(((1R,2S)-2-phenylcyclopropyl)methoxy)pyrrolidine-2-carboxylic acid and (2S,4S)-1-(2,2-diphenylacetyl)-4-(((1S,2R)-2-phenylcyclopropyl)methoxy)pyrrolidine-2-carboxylic acid] is 3970 nM; for `CN(CCCc1ccccc1)[C@@H]1CN(C(=O)C(c2ccccc2)c2ccccc2)C[C@H]1C(=O)O` (mixture of isomers) [Compound 67, (3R,4S)-1-(2,2-diphenylacetyl)-4-(methyl(3-phenylpropyl)amino)pyrrolidine-3-carboxylic acid and (3S,4R)-1-(2,2-diphenylacetyl)-4-(methyl(3-phenylpropyl)amino)pyrrolidine-3-carboxylic acid] it is 3660 nM.
The figure for `O=C(O)[C@@H]1[C@@H](OCCCc2ccccc2)CN1C(=O)C(c1ccccc1)c1ccccc1` (mixture of isomers) [Compound 142, (2S,3S)-1-(2,2-diphenylacetyl)-3-(3-phenylpropoxy)-azetidine-2-carboxylic acid and (2R,3R)-1-(2,2-diphenylacetyl)-3-(3-phenylpropoxy)-azetidine-2-carboxylic acid] is 993 nM.
The same measure for `O=C(O)[C@H]1[C@H](OCCCc2ccccc2)CN1C(=O)C(c1ccccc1)c1ccccc1` (mixture of isomers) [Compound 143, (2R,3R)-3-(3-phenylpropoxy)-1-(2,2-diphenylacetyl)-azetidine-2-carboxylic acid and (2S,3S)-3-(3-phenylpropoxy)-1-(2,2-diphenylacetyl)-azetidine-2-carboxylic acid]: 372 nM; for `O=C(O)[C@@H]1C[C@H](N2CCCC2Cc2ccccc2)CN1C(=O)C(c1ccccc1)c1ccccc1` (single isomer, unassigned) [Compound 61-A, (3′S,5′S)-2-benzyl-V-(2,2-diphenylacetyl)-[1,3′-bipyrrolidine]-5′-carboxylic acid]: 83.3 nM.
In turn, `O=C(O)[C@@H]1C[C@H](N2CCCC2Cc2ccccc2)CN1C(=O)C(c1ccccc1)c1ccccc1` (single isomer, unassigned) [Compound 61-B, (3′S,5′S)-2-benzyl-V-(2,2-diphenylacetyl)-[1,3′-bipyrrolidine]-5′-carboxylic acid] registered a half-inhibitory concentration (IC50) of 107 nM.
The figure for `O=C(O)[C@@H]1C[C@H](N2CCCCC2Cc2ccccc2)CN1C(=O)C(c1ccccc1)c1ccccc1` (single isomer, unassigned) [Compound 70-A] is 49.1 nM.
The same measure for `O=C(O)[C@@H]1C[C@H](N2CCCCC2Cc2ccccc2)CN1C(=O)C(c1ccccc1)c1ccccc1` (single isomer, unassigned) [Compound 70-B]: 1340 nM.
In the case of `O=C(O)[C@@H]1C[C@H](OCc2ccccc2)CN1C(=O)C(c1ccccc1)c1ccccc1` [Compound 2, (2S,4S)-4-(benzyloxy)-1-(2,2-diphenylacetyl)pyrrolidine-2-carboxylic acid], the IC50 was 114 nM.
The same measure for `O=C(O)[C@@H]1C[C@@H](OCc2ccccc2)CN1C(=O)C(c1ccccc1)c1ccccc1` [Compound 3, (2S,4R)-4-(benzyloxy)-1-(2,2-diphenylacetyl)pyrrolidine-2-carboxylic acid]: 193 nM.
The same measure for `O=C(O)C1Cc2c(OCc3ccccc3)cccc2N1C(=O)C(c1ccccc1)c1ccccc1` (stereo not drawn) [Compound 15, 4-(benzyloxy)-1-(2,2-diphenylacetyl)indoline-2-carboxlic acid]: 54.5 nM; for `O=C(O)[C@@H]1C[C@H](N2CCN(c3ccccc3)CC2)CN1C(=O)C(c1ccccc1)c1ccccc1` [Compound 23, (2S,4S)-1-(2,2-diphenylacetyl)-4-(4-phenylpiperazine)pyrrolidine-2-carboxylic acid]: 290 nM.
The figure for `O=C(O)[C@@H]1C[C@H](Oc2ccccc2Oc2ccccc2)CN1C(=O)C(c1ccccc1)c1ccccc1` [Compound 35, (2S,4S)-1-(2,2-diphenylacetyl)-4-(2-phenoxyphenoxy)-pyrrolidine-2-carboxylic acid] is 540 nM; for `O=C(O)[C@@H]1C[C@H](OCC#Cc2ccccc2)CN1C(=O)C(c1ccccc1)c1ccccc1` [Compound 36, (2S,4S)-1-(2,2-diphenylacetyl)-4-((3-phenylprop-2-yn-1-yl)-oxy)pyrrolidine-2-carboxylic acid] it is 1660 nM; for `O=C(O)[C@@H]1C[C@H](NCCc2ccccc2)CN1C(=O)C(c1ccccc1)c1ccccc1` [Compound 46, (2S,4S)-1-(2,2-diphenylacetyl)-4-(phenethylamino)-pyrrolidine-2-carboxylic acid] it is 2260 nM.
As for `O=C(O)[C@@H]1C[C@H](N2CCC[C@@H](c3ccccc3)C2)CN1C(=O)C(c1ccccc1)c1ccccc1` [Compound 48, (2S,4S)-1-(2,2-diphenylacetyl)-4-((S)-3-phenylpiperidine-1-yl)pyrrolidine-2-carboxylic acid], the IC50 came out at 89.4 nM.
The figure for `O=C(O)[C@@H]1C[C@H](N2CCC[C@H](c3ccccc3)C2)CN1C(=O)C(c1ccccc1)c1ccccc1` [Compound 49, (2S,4S)-1-(2,2-diphenylacetyl)-4-((R)-3-phenylpiperidin-1-yl)pyrrolidine-2-carboxylic acid] is 58.8 nM; for `CN(C)S(=O)(=O)NC(=O)[C@@H]1C[C@H](OCCCc2ccccc2)CN1C(=O)C(c1ccccc1)c1ccccc1` [Compound 50] it is 67.3 nM.
As for `O=C(O)[C@@H]1C[C@H](N2CCCC(Cc3ccccc3)C2)CN1C(=O)C(c1ccccc1)c1ccccc1` (stereo partly drawn) [Compound 53, (2S,4S)-4-(3-benzylpiperidin-1-yl)-1-(2,2-diphenylacetyl)-pyrrolidine-2-carboxylic acid], the IC50 worked out at 43.9 nM.
The same measure for `O=C(O)[C@@H]1C[C@H](COCc2ccccc2)CN1C(=O)C(c1ccccc1)c1ccccc1` [Compound 54]: 155 nM; for `O=C(O)[C@@H]1C[C@H](CCOCc2ccccc2)CN1C(=O)C(c1ccccc1)c1ccccc1` [Compound 55, (2S,4R)-4-(2-(benzyloxy)ethyl)-1-(2,2-diphenylacetyl)-pyrrolidine-2-carboxylic acid]: 386 nM; for `O=C(O)[C@@H]1C[C@H](c2ncc(-c3ccccc3)o2)CN1C(=O)C(c1ccccc1)c1ccccc1` [Compound 56]: 315 nM.
The figure for `O=C(O)[C@@H]1C[C@H](CS(=O)(=O)CCc2ccccc2)CN1C(=O)C(c1ccccc1)c1ccccc1` [Compound 58, (2S,S)-1-(2,2-diphenylacetyl)-4-((phenethylsulfonyl)methyl)pyrrolidine-2-carboxylic acid] is 3050 nM.
